The NIST ThermoML archive (doi:10.1016/j.tca.2015.05.015)
Numbers after ± are expanded uncertainties.

Columns and labels:
[1] = Crystal; DTA
[2] = Molar enthalpy of transition or fusion; details: Crystal; DSC

Row | Normal melting temperature [1] [°C] | Molar enthalpy of transition or fusion [2] [kcal/mol] | Compound
1 | 17 ± 5 | 12 ± 0.55 | CCCCCCCCCCCCCCCC [hexadecane]
2 | 25 ± 5 | 14.2 ± 0.598 | CCCCCCCCCCCCCCCCCC [octadecane]
